Measurements from ChEMBL document CHEMBL5233262, “Anti-inflammatory activity of naturally occuring diarylheptanoids - A review” (Bioorg Med Chem, 2021).
Converted amounts (≈) assume the structure as drawn.

Columns and labels:
Mus musculus [1] = assay: Antiinflammatory activity in ICR mouse model of TPA-induced ear edema assessed as inhibition of ear inflammation at 20 uM,TOP for 30 mins followed by TPA addition and measured after 5 hrs; format: functional; details: 5.5 h, time 330 min
[2] = target: T1, Polyunsaturated fatty acid 5-lipoxygenase (Homo sapiens, UniProt P09917); assay: Inhibition of 5-LOX in human neutrophils assessed as reduction in 5-HETE formation preincubated for 5 mins followed by arachidonic acid and A23187 addition and measured after 5 mins by RP-HPLC analysis; format: cell-based, Neutrophil
T1 sequence (P09917 whole entry): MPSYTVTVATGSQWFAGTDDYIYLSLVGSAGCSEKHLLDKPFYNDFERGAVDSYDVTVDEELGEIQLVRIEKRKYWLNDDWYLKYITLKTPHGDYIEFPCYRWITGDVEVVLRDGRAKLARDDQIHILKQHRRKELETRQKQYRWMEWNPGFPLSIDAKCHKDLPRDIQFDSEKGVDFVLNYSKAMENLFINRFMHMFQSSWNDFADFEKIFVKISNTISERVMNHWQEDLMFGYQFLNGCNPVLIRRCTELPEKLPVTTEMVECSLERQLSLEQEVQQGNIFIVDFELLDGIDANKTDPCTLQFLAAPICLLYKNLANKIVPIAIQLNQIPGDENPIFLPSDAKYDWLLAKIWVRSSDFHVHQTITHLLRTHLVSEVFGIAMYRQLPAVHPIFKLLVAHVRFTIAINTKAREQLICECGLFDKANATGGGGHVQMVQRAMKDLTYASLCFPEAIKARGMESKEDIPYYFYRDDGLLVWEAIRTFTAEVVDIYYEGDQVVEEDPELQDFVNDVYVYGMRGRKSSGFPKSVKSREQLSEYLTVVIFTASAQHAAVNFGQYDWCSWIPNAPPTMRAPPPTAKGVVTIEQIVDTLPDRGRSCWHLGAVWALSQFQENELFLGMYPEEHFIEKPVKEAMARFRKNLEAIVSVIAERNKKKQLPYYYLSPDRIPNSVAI

[3] = Inhibition of COX in bovine seminal vesicle assessed as reduction in PGE2 production using arachidonic acid as substrate; format: tissue-based, Bos taurus
HUVEC [4] = assay: Antiinflammatory activity in human HUVEC cells assessed as inhibition of TNFalpha-induced VCAM-1 expression at 1 to 50 uM preincubated for 2 hrs followed by TNFalpha stimulation and measured after 8 hrs by ELISA; format: functional; details: dose 1-50 µM, time 10 hrs
HUVEC [5] = assay: Antiinflammatory activity in human HUVEC cells assessed as inhibition of IL-1beta induced VCAM-1 expression at 1 to 50 uM preincubated for 2 hrs followed by IL-1beta stimulation and measured after 8 hrs by ELISA; format: functional; details: dose 1-50 µM, time 10 hrs
HUVEC [6] = assay: Antiinflammatory activity in human HUVEC cells assessed as inhibition of TNFalpha-induced ICAM-1 expression at 1 to 50 uM preincubated for 2 hrs followed by TNFalpha stimulation and measured after 8 hrs by ELISA; format: functional; details: dose 1-50 µM, time 10 hrs
HUVEC [7] = assay: Antiinflammatory activity in human HUVEC cells assessed as inhibition of IL-1beta induced ICAM-1 expression at 1 to 50 uM preincubated for 2 hrs followed by IL-1beta stimulation and measured after 8 hrs by ELISA; format: functional; details: dose 1-50 µM, time 10 hrs
Zingiber officinale = assay: Inhibition of prostaglandin biosynthesis in ginger; format: functional, organism-based
[8] = Antioxidant activity assessed as DPPH radical scavenging activity incubated for 25 mins by spectrophotometric analysis; format: functional
[9] = Antioxidant activity assessed as DPPH radical scavenging activity incubated for 30 mins by spectrophotometric analysis; format: functional
[10] = Antioxidant activity assessed as nitroblue tetrazolium superoxide radical scavenging activity incubated for 10 mins by spectrophotometric analysis; format: functional
RAW264.7 [11] = assay: Antiinflammatory activity in mouse RAW264.7 cells assessed as inhibition of LPS-induced NO production preincubated for 1 hrs followed by LPS stimulation and measured after 24 hrs by Griess reagent based analysis; format: functional, cell-based
RAW264.7 [12] = assay: Antiinflammatory activity in mouse RAW264.7 cells assessed as inhibition of LPS-induced NO production incubated for 20 hrs by Griess method; format: functional, cell-based; details: RAW264.7, 20 h
RAW264.7 [13] = assay: Antiinflammatory activity in mouse RAW264.7 cells assessed as inhibition of LPS-induced NO production preincubated for 0.5 hrs followed by LPS stimulation and measured after 24 hrs by Griess reagent based analysis; format: functional, cell-based
RAW264.7 [14] = assay: Antiinflammatory activity in mouse RAW264.7 cells assessed as inhibition of IFN-gamma and LPS-induced NO production incubated for 24 hrs by Griess assay; format: functional, cell-based; details: RAW264.7, 24 h
RAW264.7 [15] = assay: Antiinflammatory activity against mouse RAW264.7 cells assessed as inhibition of IFN-gamma and LPS-induced COX2 production preincubated for 2 hrs followed by IFN-gamma and LPS stimulation and measured after 16 hrs by spectrophotometric analysis; format: functional, cell-based
RAW264.7 [16] = assay: Antiinflammatory activity in mouse RAW264.7 cells assessed as inhibition of LPS-induced NO production incubated for 24 hrs by Griess reagent based analysis; format: functional, cell-based; details: RAW264.7, 24 h
RAW264.7 [17] = assay: Antiinflammatory activity in mouse RAW264.7 cells assessed as inhibition of LPS-induced TNFalpha production preincubated for 1 hr followed by LPS stimulation and measured after 18 hrs by immunoassay; format: functional, cell-based
RAW264.7 [18] = assay: Antiinflammatory activity in mouse RAW264.7 cells assessed as inhibition of LPS-induced NF-kappaB activation incubated for 24 hrs by SEAP microplate reader analysis; format: functional, cell-based; details: RAW264.7, 24 h
RAW264.7 [19] = assay: Antiinflammatory activity in mouse RAW264.7 cells assessed as inhibition of IFN-gamma and LPS-induced NO production incubated for 20 hrs by Griess assay; format: functional, cell-based; details: RAW264.7, 20 h
MCF-10A = assay: Antiinflammatory activity in human MCF-10A cells assessed as inhibition of TPA-induced COX2 production at 12.5 to 100 uM incubated for 4 hrs by Western blot analysis; format: functional; details: dose 12.5-100 µM
RAW264.7 [20] = assay: Antiinflammatory activity in mouse RAW264.7 cells assessed as inhibition of LPS-induced NO production at 30 uM preincubated for 0.5 hrs followed by LPS stimulation and measured after 24 hrs by Griess reagent based analysis; format: functional; details: time 24.5 hrs
RAW264.7 [21] = assay: Cytotoxicity against mouse RAW264.7 cells assessed as reduction in cell viability at 30 uM by MTT assay; format: toxicity, cell-based; details: raw264.7, 30 µM
Mus musculus [22] = assay: Antiinflammatory activity in ICR mouse model of TPA-induced ear edema assessed as inhibition of ear inflammation at 1 mg,TOP for 30 mins followed by TPA addition and measured after 6 hrs; format: functional; details: time 390 min, 6.5 h
Mus musculus [23] = assay: Antiinflammatory activity in TPA-induced ear edema ICR mouse model assessed as inhibition of ear inflammation at 1 ug, TOP for 30 mins followed by TPA addition and measured after 6 hrs; format: functional; details: dose 1 µg, time 390 min, 6.5 h
RAW264.7 [24] = assay: Antiinflammatory activity in mouse RAW264.7 cells assessed as inhibition of LPS-induced NO production incubated for 20 hrs by Griess reagent based microplate reader analysis; format: functional, cell-based; details: RAW264.7, 20 h
RAW264.7 [25] = assay: Cytotoxicity against mouse RAW264.7 cells assessed as reduction in cell viability at 0.07 to 0.1 mg/ml incubated for 24 hrs by MTT assay; format: toxicity, cell-based; details: raw264.7, 24 h, dose 0.07-0.1 mg/ml
HepG2 [26] = assay: Antiinflammatory activity in human HepG2 cells assessed as inhibition of LPS-induced IL-1beta mRNA expression at 10 ug/ml preincubated for 1 hrs followed by LPS stimulation and measured after 24 hrs by qPCR analysis; format: functional; details: time 25 hrs
HepG2 [27] = assay: Antiinflammatory activity in human HepG2 cells assessed as inhibition of LPS-induced IL-6 mRNA expression at 10 ug/ml preincubated for 1 hrs followed by LPS stimulation and measured after 24 hrs by qPCR analysis; format: functional; details: time 25 hrs
HepG2 [28] = assay: Antiinflammatory activity in human HepG2 cells assessed as inhibition of LPS-induced TNFalpha mRNA expression at 10 ug/ml preincubated for 1 hrs followed by LPS stimulation and measured after 24 hrs by qPCR analysis; format: functional; details: time 25 hrs
RAW264.7 [29] = assay: Antiinflammatory activity in mouse RAW264.7 cells assessed as inhibition of LPS-induced NO production at 25 uM incubated for 24 hrs by Griess reagent based assay; format: functional
[30] = Antiinflammatory activity in human PBMC cells assessed as inhibition of LPS-induced IL-1beta production at 25 uM incubated for 18 hrs by ELISA; format: functional
[31] = Antiinflammatory activity in human PBMC cells assessed as inhibition of LPS-induced TNFalpha production at 25 uM incubated for 18 hrs by ELISA; format: functional
RAW264.7 [32] = assay: Antiinflammatory activity in mouse RAW264.7 cells assessed as inhibition of LPS-induced iNOS mRNA expression at 25 uM incubated for 12 hrs by PCR analysis; format: functional
RAW264.7 [33] = assay: Antiinflammatory activity in mouse RAW264.7 cells assessed as inhibition of LPS-induced COX-2 mRNA expression at 25 uM incubated for 12 hrs by PCR analysis; format: functional
RAW264.7 [34] = assay: Antiinflammatory activity in mouse RAW264.7 cells assessed as inhibition of KLA-induced TNFalpha expression at 0.02 mg/ml and measured after 24 hrs by ELISA; format: functional

`COc1cc(/C=C/C(=O)CCCCc2ccccc2)ccc1O` gave an inhibition in vivo at 20 µM (Mus musculus [1]) of 52%, an IC50 [2] of 4 µM and an IC50 [3] of 23 µM. The “inhibition (INH)” value (HUVEC [4]) was 0%, the “inhibition (INH)” value (HUVEC [5]) was 0% and the “inhibition (INH)” value (HUVEC [6]) was 0%. For the same compound, the “inhibition (INH)” value (HUVEC [7]) was 0% and the IC50 (Zingiber officinale) was 2.3 µM.
For `O=C(O)c1cc(O)c(O)c(O)c1` [GALLIC ACID], the IC50 [8] was 10.4 µM.
In the case of `O=C(CCc1ccc(O)c(O)c1)C[C@@H](O)CCc1ccc(O)c(O)c1` [HIRSUTANONOL], the IC50 [9] is reported as 26 µM, the IC50 [10] is reported as 19 µM and the IC50 (RAW264.7 [11]) is reported as 21.3 µM. For the same compound, the IC50 (RAW264.7 [12]) was 17.8 µM, the IC50 (RAW264.7 [13]) was 30 µM and the IC50 (RAW264.7 [14]) was 44.3 µg/mL (≈ 128 µM). It also gave an IC50 (RAW264.7 [15]) of 25.7 µg/mL (≈ 74.2 µM), an IC50 (RAW264.7 [16]) of 19.3 µM and an IC50 (RAW264.7 [17]) of 23.7 µM. The IC50 (RAW264.7 [18]) was 9.9 µM, the IC50 (RAW264.7 [19]) was 3.8 µM and the “inhibition (INH)” value (MCF-10A) was 22%.
Compound `Oc1ccc(CCCC[C@@H](O)CCc2ccc(O)cc2)cc1` has an IC50 [9] of 44.4 µM, an IC50 (RAW264.7 [11]) of 27.8 µM and an inhibition at 30 µM (RAW264.7 [20]) of 29%. The Activity (RAW264.7 [21]) was 52% and the ID50 (Mus musculus [22]) was 0.66 mg.
With `COc1cc(CC/C=C/C(=O)CCc2ccccc2)ccc1O` the IC50 (Zingiber officinale) was 50 µM, the ID50 (Mus musculus [23]) was 2.2 µmol and the IC50 (RAW264.7 [24]) was 0.6 µM. The Activity (RAW264.7 [25]) was greater than 80%, the inhibition at 10 µg/mL (HepG2 [26]) was 86% and the inhibition at 10 µg/mL (HepG2 [27]) was 52%. For the same compound, the inhibition at 10 µg/mL (HepG2 [28]) was 85%, the inhibition at 25 µM (RAW264.7 [29]) was 50% and the inhibition at 25 µM [30] was 85%. The inhibition at 25 µM [31] was 43%, the inhibition at 25 µM (RAW264.7 [32]) was 75.5% and the inhibition at 25 µM (RAW264.7 [33]) was 54.6%. It also gave an inhibition at 20 µg/mL (RAW264.7 [34]) of 54%.
